Data: patent US20240293558A1, “KRAS INHIBITOR CONJUGATES” (Erasca, Inc., priority 2021, published 2024)
Like-named read-outs stand apart in the source and are kept apart here.

Legend:
KRAS G12D [1] = target: T1, KRAS G12D (Homo sapiens, UniProt P01116, G12D); assay: In-vitro RAS-RAF binding assay (RRB), HTRF/FRET; format: biochemical; set-up: Biotinylated KRAS protein amino acids 1-169 (produced at Erasca); made in house; conditions: read-out: Inhibition of RAS-RAF Binding (in-vitro) KRAS (G12D) IC50
How it was run: (§1)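 Biotinylated KRAS 1-169 (streptavidin-terbium donor, 30 nM) and GST-cRAF RBD (anti-GST d2 acceptor, 30 nM) in HEPES pH 7.5, NaCl, MgCl2, DTT buffer. After compound incubation, SOS1 catalytic domain plus GTPgS drive 60 min nucleotide exchange. HTRF FRET read at equilibrium, in duplicate.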
Target sequence in this assay (P01116 1-169 isoform P01116-2 G12D): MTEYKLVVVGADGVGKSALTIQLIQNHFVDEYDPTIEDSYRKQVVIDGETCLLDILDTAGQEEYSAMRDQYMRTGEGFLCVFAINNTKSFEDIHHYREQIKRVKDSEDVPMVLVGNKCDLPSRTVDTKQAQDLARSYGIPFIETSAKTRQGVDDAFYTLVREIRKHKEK

KRAS (WT) = target: T2, KRAS (WT) (Homo sapiens, UniProt P01116); assay: In-vitro RAS-RAF binding assay (RRB), HTRF/FRET; format: biochemical; conditions: read-out: Inhibition of RAS-RAF Binding (in-vitro) KRAS (WT) IC50
T2 construct: Biotinylated KRAS protein amino acids 1-169 (produced at Erasca); made in house
How it was run: as §1

KRAS G12D [2] = target: T1, KRAS G12D; assay: Degradation of KRas G12D in AsPC-1 cells, Western blot; format: cell-based; set-up: endogenous in cells; host or cells: AsPC-1 (ATCC CRL-1682); conditions: for KRAS G12D degradation (Western blot), result in words: AsPC-1 cells, FIGS. 1-5; for Dmax: ASPC1; for Dmax / DC50: AsPc-1 cell line after 24 h treatment
Method: This Example illustrates that the compounds presented herein degrade KRAS G12D.
AsPC-1 cells (ATCC CRL-1682) expressing G12D were grown in RPMI-1640 medium supplemented with 10% fetal bovine serum, and Penicillin/Streptomycin. Cell were plated in 6-well tissue culture plates at a density of 1 million cells/well and allowed to attach for overnight. Diluted compounds were then added in a final concentration of 0.2% DMSO. After 24 hour treatment, the medium was removed, and the plate was washed three times with ice-cold PBS. 50ul of the RIPA cell lysis buffer (ThermoFisher 89901) supplemented with protease inhibitor (Roche 4693116001) and Phosphatase Cocktail A and B inhibitor (Bimake B15002; Bimake Houston TX) was added to each well, the adherent cells were scratched off, and transferred into pre-cold centrifuge tubes. After vigorous vortex, the tubes were incubated on ice for 30 minutes, centrifuged 14,000 rpm for 10 min at 4° C., and the supernatant were transferred into fresh tubes kept on ice. The protein concentration of the supernatant was determined with bicinchoninic acid method (BCA) (ThermoFisher 23227). Samples were prepared to the final concentration of 30ug in 20ul using NuPAGE LDS Sample Buffer (Invitrogen NP0007), NuPAGE Sample Reducing Agent (Invitrogen NP0009), and RIPA cell lysis buffer, and boiled at 95° C. for 15 minutes in water bath.
The levels of KRAS protein and phosphorylated ERK1/2 were determined by Western blotting. 20 μL of protein sample mixture was loaded into each well of 1.5 mm 4-12% Bis-Tris gel (Invitrogen NP0335), and run at 80V in stacking gel and 120 V in separating gel for about 2 h in MOPS running buffer (Invitrogen NP0001). The gel was transferred to the membrane (20V, 7 min) with Invitrogen iBlot2, and blocked with Li-Cor blocking buffer (LI-COR 927-60001; Li-Cor Biotechnology, Lincoln NE) for at least 1 h at room temperature. Primary antibodies diluted in the blocking buffer were added and incubated at 4° C. overnight. As the primary antibodies, KRAS (Proteintech 12063-1-AP), G12D Mutant Specific KRAS (Cell Signaling Technology 14429S), ERKI1/2 (Cell Signaling Technology 4695S), Phospho-ERKI1/2 (Cell Signaling Technology 4370S), and GAPDH (Millipore MAB374) were used. The membrane was washed 4 times with TBST (0.10% Tween20®; ThermoFisher 28360) for 5 minutes at room temperature, then incubated with Li-Cor anti-rabbit-800 (LI-COR 926-68070) and anti-mouse-680 (LI-COR-926-32211) diluted in Li-Cor blocking buffer with the ratio of 1:15,000 to visualize the primary antibodies for 1 hour at room temperature. Then membrane was washed 4 times with TBST (0.1% Tween20) 5 minutes. The signal intensities of bands were quantified by Li-Cor Odyssey CLX.
The KRas and phosphor-ERK1/2 signals were normalized to the GAPDH signal for each lane and percent of DMSO values were calculated to determine the degradation of KRas and the inhibition of ERK1/2 phosphorylation upon the compound treatment.
Target sequence in this assay (P01116 1-188 isoform P01116-2 G12D): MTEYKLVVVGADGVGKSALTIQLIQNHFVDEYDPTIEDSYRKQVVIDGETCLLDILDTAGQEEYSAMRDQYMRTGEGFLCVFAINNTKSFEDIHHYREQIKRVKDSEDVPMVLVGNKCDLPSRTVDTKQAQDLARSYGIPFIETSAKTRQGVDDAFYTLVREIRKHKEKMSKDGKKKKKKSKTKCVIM

[3] = Table 2, average of multiple runs of each compound

T2 sequence (P01116 1-169 isoform P01116-2): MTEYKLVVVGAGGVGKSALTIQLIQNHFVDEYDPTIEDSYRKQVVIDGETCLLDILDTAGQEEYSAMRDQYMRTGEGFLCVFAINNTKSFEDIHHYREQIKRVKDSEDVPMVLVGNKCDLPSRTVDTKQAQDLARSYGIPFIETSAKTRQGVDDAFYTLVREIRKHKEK

SMILES | IC50 (KRAS G12D [1]; Table 1) [nM] | IC50 (KRAS G12D [1]; [3]) [nM] | IC50 (KRAS (WT); Table 1) [nM] | IC50 (KRAS (WT); [3]) [nM] | KRAS G12D degradation (Western blot), result in words (KRAS G12D [2]) | Dmax (KRAS G12D [2]) [%] | DC50 (KRAS G12D [2]) [nM]
Cc1ncsc1-c1ccc([C@H](C)NC(=O)[C@@H]2C[C@@H](O)CN2C(=O)[C@@H](NC(=O)CCOCCCN2CCC[C@H]2COc2nc(N3CC4CCC(C3)N4)c3cc(Cl)c(-c4ccc(F)c5sc(N)nc45)c(F)c3n2)C(C)(C)C)cc1 [Example 4, (2S,4R)-1-[(2S)-2-[3-[3-[(2S)-2-[[7-(2-amino-7-fluoro-1,3-benzothiazol-4-yl)-6-chloro-4-(3,8-diazabicyclo[3.2.1]octan-3-yl)-8-fluoro-quinazolin-2-yl]oxymethyl]pyrrolidin-1-yl]propoxy]propanoylamino]-3,3-dimethylbutanoyl]-4-hydroxy-N-[(1S)-1-[4-(4-methylthiazol-5-yl)phenyl]ethyl]pyrrolidine-2-carboxamide] | 13 | 15.1 | 134 | 216 | successful degradation |  | 
Cc1ncsc1-c1ccc([C@H](C)NC(=O)[C@@H]2C[C@@H](O)CN2C(=O)[C@@H](NC(=O)CCOCCCN2CCC[C@H]2COc2nc(N3CC4CCC(C3)N4)c3cnc(-c4cc(O)cc5cccc(F)c45)c(F)c3n2)C(C)(C)C)cc1 [Example 6, (2S,4R)-1-[(2S)-2-[3-[3-[(2S)-2-[[4-(3,8-diazabicyclo[3.2.1]octan-3-yl)-8-fluoro-7-(8-fluoro-3-hydroxy-1-naphthyl)pyrido[4,3-d]pyrimidin-2-yl]oxymethyl]pyrrolidin-1-yl]propoxy]propanoylamino]-3,3-dimethyl-butanoyl]-4-hydroxy-N-[(1S)-1-[4-(4-methylthiazol-5-yl)phenyl]ethyl]pyrrolidine-2-carboxamide] | 9.5 | 8.21 | 126 | 158 | Favorable results | 95 | 255
Cc1ncsc1-c1ccc([C@H](C)NC(=O)[C@@H]2C[C@@H](O)CN2C(=O)[C@@H](NC(=O)CCCCN2CCC[C@H]2COc2nc(N3CC4CCC(C3)N4)c3cc(Cl)c(-c4ccc(F)c5sc(N)nc45)c(F)c3n2)C(C)(C)C)cc1 [Example 7, (2S,4R)-1-[(2S)-2-[5-[(2S)-2-[[7-(2-amino-7-fluoro-1,3-benzothiazol-4-yl)-6-chloro-4-(3,8-diazabicyclo[3.2.1]octan-3-yl)-8-fluoro-quinazolin-2-yl]oxymethyl]pyrrolidin-1-yl]pentanoylamino]-3,3-dimethyl-butanoyl]-4-hydroxy-N-[(1S)-1-[4-(4-methylthiazol-5-yl)phenyl]ethyl]pyrrolidine-2-carboxamide] | 12 | 12.4 | 448 | 448 | Favorable results |  | 
Cc1ncsc1-c1ccc([C@H](CO)NC(=O)[C@@H]2C[C@@H](O)CN2C(=O)[C@@H](NC(=O)CCOCCCN2CCC[C@H]2COc2nc(N3CC4CCC(C3)N4)c3cc(Cl)c(-c4ccc(F)c5sc(N)c(C#N)c45)c(F)c3n2)C(C)(C)C)cc1 [Example 9, (2S,4R)-1-[(2S)-2-[3-[3-[(2S)-2-[[7-(2-amino-3-cyano-7-fluoro-benzothiophen-4-yl)-6-chloro-4-(3,8-diazabicyclo[3.2.1]octan-3-yl)-8-fluoro-quinazolin-2-yl]oxymethyl]pyrrolidin-1-yl]propoxy]propanoylamino]-3,3-dimethyl-butanoyl]-4-hydroxy-N-[(1R)-2-hydroxy-1-[4-(4-methylthiazol-5-yl)phenyl]ethyl]pyrrolidine-2-carboxamide] | 13.8 | 13.8 | 49.5 | 49.5 | Favorable results | 95 | 183
